Test: xn = mol fraction of the nth substance listed
Settings: 97.6 kPa, Liquid; for mass density: Vibrating tube method; for viscosity: Capillary tube (Ostwald / Ubbelohde) method

CCCCCCCC[n+]1ccn(C)c1.[Cl-] [1-methyl-3-octylimidazolium chloride] + CN(C)C=O
Settings | mass density [kg/m3] | viscosity [mPa·s]
328.15 K, x1 = 0.119 | 945.25 | –
328.15 K, x1 = 0.241 | 960.61 | –
328.15 K, x1 = 0.321 | 969.03 | –
328.15 K, x1 = 0.424 | 975.22 | –
328.15 K, x1 = 0.557 | 980.8 | –
328.15 K, x1 = 0.739 | 987.03 | –
328.15 K, x1 = 0.858 | 989.7 | –
328.15 K, x1 = 1 | 992 | –
333.15 K, x1 = 0.119 | 941.11 | 1.56
333.15 K, x1 = 0.241 | 956.95 | 4.25
333.15 K, x1 = 0.321 | 965.62 | 7.67
333.15 K, x1 = 0.424 | 971.88 | 15.92
333.15 K, x1 = 0.557 | 977.65 | 38.97
333.15 K, x1 = 0.739 | 984.05 | 120.9
333.15 K, x1 = 0.858 | 986.83 | 233.56
333.15 K, x1 = 1 | 989.17 | 588.69
338.15 K, x1 = 0.119 | 936.97 | 1.45
338.15 K, x1 = 0.241 | 953.32 | 3.85
338.15 K, x1 = 0.321 | 962.16 | 6.79
338.15 K, x1 = 0.424 | 968.56 | 13.71
338.15 K, x1 = 0.557 | 974.48 | 32.38
338.15 K, x1 = 0.739 | 981.09 | 94.93
338.15 K, x1 = 0.858 | 983.97 | 176.82
338.15 K, x1 = 1 | 986.38 | 426.28
343.15 K, x1 = 0.119 | 932.83 | 1.36
343.15 K, x1 = 0.241 | 949.69 | 3.5
343.15 K, x1 = 0.321 | 958.67 | 6.06
343.15 K, x1 = 0.424 | 965.24 | 11.91
343.15 K, x1 = 0.557 | 971.56 | 27.13
343.15 K, x1 = 0.739 | 978.13 | 75.65
343.15 K, x1 = 0.858 | 981.1 | 137.16
343.15 K, x1 = 1 | 983.63 | 316.66
348.15 K, x1 = 0.119 | 928.69 | 1.27
348.15 K, x1 = 0.241 | 946.02 | 3.2
348.15 K, x1 = 0.321 | 955.18 | 5.43
348.15 K, x1 = 0.424 | 961.92 | 10.41
348.15 K, x1 = 0.557 | 968.34 | 22.93
348.15 K, x1 = 0.739 | 975.19 | 61.29
348.15 K, x1 = 0.858 | 978.24 | 108.17
348.15 K, x1 = 1 | 980.88 | 237.14
353.15 K, x1 = 0.119 | 924.55 | 1.2
353.15 K, x1 = 0.241 | 942.33 | 2.93
353.15 K, x1 = 0.321 | 951.69 | 4.9
353.15 K, x1 = 0.424 | 958.62 | 9.16
353.15 K, x1 = 0.557 | 965.07 | 19.6
353.15 K, x1 = 0.739 | 972.25 | 50.08
353.15 K, x1 = 0.858 | 975.39 | 86.03
353.15 K, x1 = 1 | 978.13 | 181.41

From the NIST ThermoML archive (doi:10.1021/acs.jced.7b00002)
